Assay results: patent US20070128217A1 (priority 2003, published 2007)

How the values were obtained:
[1] = system: rabbit serum obtained by immunizing a rabbit with the SARS-CoV strain Frankfurt 1; type: binding; design: Binding of a rabbit serum to linear peptides / Binding of a rabbit serum to looped peptides / Rabbit serum linear peptides / Rabbit serum looped peptides / Binding of a rabbit serum to linear peptides of protein N of SARS-CoV Urbani (Rabbit serum linear peptides) / Binding of a rabbit serum to looped/cyclic peptides of protein N of SARS-CoV Urbani (Rabbit serum looped peptides): unit not given here
[2] = system: recombinant human anti-SARS-CoV antibody 03-018; type: binding; design: Binding of antibody 03-018 to linear peptides of the N protein of SARS-CoV Urbani / Binding of antibody 03-018 to looped/cyclic peptides of the N protein of SARS-CoV Urbani: unit not given here
[3] = system: control sera (pooled serum of ten healthy LUMC hospital workers; commercial negative donor pooled serum from the Dutch bloodbank); type: binding, human; design: Binding of Control serum LUMC to linear peptides / Binding of Control serum Blood-bank to linear peptides / Binding of Control serum LUMC to looped peptides / Binding of Control Serum Blood-Bank to Looped peptides / Binding of Control serum LUMC to linear peptides of the protein M of SARS-CoV Urbani / Binding of Control serum Blood-bank to linear peptides of the protein M of SARS-CoV Urbani / Binding of Control serum LUMC to looped peptides of the protein M of SARS-CoV Urbani / Binding of Control Serum Blood-Bank to Looped peptides of the protein M of SARS-CoV Urbani: unit not given here
[4] = system: antibodies in sera from SARS patients (sera 1a, 1b, 2, 6, 37, 62, London, SARS-yellow, SARS-green); type: binding, human; design: Binding of serum 6 to linear peptides of protein X1 of SARS-CoV Urbani / Binding of serum 37 to linear peptides of protein X1 of SARS-CoV Urbani / Binding of serum 6 to looped/cyclic peptide (PEPSCAN-ELISA) / Binding of serum 37 to looped/cyclic peptide (PEPSCAN-ELISA) / Binding of serum 37 to looped/cyclic peptides of protein X1 of SARS-CoV Urbani / Binding of serum 6 to linear peptides of protein X2 / Binding of serum 37 to linear peptides of protein X2 / Binding of serum 37 to looped/cyclic peptides of protein X2 of SARS-CoV Urbani / Binding of serum 6 to linear peptides of protein M of SARS-CoV Urbani / Binding of serum 37 to linear peptides of protein M of SARS-CoV Urbani / Binding of serum 6 to looped/cyclic peptides of protein M of SARS-CoV Urbani / Binding of serum 37 to looped/cyclic peptides of protein M of SARS-CoV Urbani / Binding of serum 6 to linear peptides of protein X3 of SARS-CoV Urbani / Binding of serum 37 to linear peptides of protein X3 of SARS-CoV Urbani / Binding of serum 37 to looped/cyclic peptides of protein X3 of SARS-CoV Urbani / Binding of serum 6 to linear peptides of protein X4 of SARS-CoV Urbani / Binding of serum 37 to linear peptides of protein X4 of SARS-CoV Urbani / Binding of serum 37 to looped/cyclic peptides of protein X4 of SARS-CoV Urbani / Binding of serum 6 to linear peptides of protein X5 of SARS-CoV Urbani / Binding of serum 37 to linear peptides of protein X5 of SARS-CoV Urbani / Binding of serum 37 to looped/cyclic peptides of protein X5 of SARS-CoV Urbani / Binding of serum 6 to linear peptides of protein N of SARS-CoV Urbani / Binding of serum 37 to linear peptides of protein N of SARS-CoV Urbani / Binding of serum 6 to linear peptide (PEPSCAN-ELISA) / Binding of serum 1a to looped/cyclic peptides of protein N of SARS-CoV Urbani / Binding of serum 1b to looped/cyclic peptides of protein N of SARS-CoV Urbani / Binding of serum 2 to looped/cyclic peptides of protein N of SARS-CoV Urbani / Binding of serum 6 to looped/cyclic peptides of protein N of SARS-CoV Urbani / Binding of serum 37 to looped/cyclic peptides of protein N of SARS-CoV Urbani / Binding of serum 62 to looped/cyclic peptides of protein N of SARS-CoV Urbani / Binding of serum London to looped/cyclic peptides of protein N of SARS-CoV Urbani / Binding of serum SARS-green to looped/cyclic peptides of protein N of SARS-CoV Urbani: unit not given here

Row | Sequence | Binding of a rabbit serum to linear peptides of protein N of SARS-CoV Urbani (Rabbit serum linear peptides) [1] | Binding of a rabbit serum to looped/cyclic peptides of protein N of SARS-CoV Urbani (Rabbit serum looped peptides) [1] | Binding of antibody 03-018 to linear peptides of the N protein of SARS-CoV Urbani [2] | Binding of antibody 03-018 to looped/cyclic peptides of the N protein of SARS-CoV Urbani [2] | Binding of serum 1a to linear peptides of protein N of SARS-CoV Urbani [4] | Binding of serum 1a to looped/cyclic peptides of protein N of SARS-CoV Urbani [4] | Binding of serum 1b to linear peptides of protein N of SARS-CoV Urbani [4] | Binding of serum 1b to looped/cyclic peptides of protein N of SARS-CoV Urbani [4] | Binding of serum 2 to linear peptides of protein N of SARS-CoV Urbani [4] | Binding of serum 2 to looped/cyclic peptides of protein N of SARS-CoV Urbani [4] | Binding of serum 6 to linear peptides of protein N of SARS-CoV Urbani [4] | Binding of serum 6 to looped/cyclic peptides of protein N of SARS-CoV Urbani [4] | Binding of serum 37 to linear peptides of protein N of SARS-CoV Urbani [4] | Binding of serum 37 to looped/cyclic peptides of protein N of SARS-CoV Urbani [4] | Binding of serum 62 to linear peptides of protein N of SARS-CoV Urbani [4] | Binding of serum 62 to looped/cyclic peptides of protein N of SARS-CoV Urbani [4] | Binding of serum London to linear peptides of protein N of SARS-CoV Urbani [4] | Binding of serum London to looped/cyclic peptides of protein N of SARS-CoV Urbani [4] | Binding of serum SARS-green to linear peptides of protein N of SARS-CoV Urbani [4] | Binding of serum SARS-green to looped/cyclic peptides of protein N of SARS-CoV Urbani [4] | further results
1 | LQNSMSGASADSTQA | 0.9 | 0.4 | 0.2 | 0.2 | 0.2 | 0.2 | 0.1 | 0.1 | 0.1 | 0.4 | 0.2 | 0.0 | 0.6 | 0.5 | 0.4 | 0.1 | 0.6 | 0.1 | 0.4 | 0.0 | Control Serum Blood-Bank Looped peptides [3]: 0.0; Control serum Blood-bank linear peptides [3]: 0.7; Control serum LUMC linear peptides [3]: 0.5; Control serum LUMC looped peptides [3]: 0.2; Binding of serum SARS-yellow to linear peptides of protein N of SARS-CoV Urbani [4]: 0.6; Binding of serum SARS-yellow to looped/cyclic peptides of protein N of SARS-CoV Urbani [4]: 0.0
2 | LRFPRGQGVPINTNS | 0.2 | 0.6 | 0.1 | 0.2 | 0.2 | 0.3 | 0.1 | 0.2 | 0.3 | 0.4 | 0.2 | 0.2 | 0.6 | 0.6 | 0.6 | 0.4 | 0.5 | 0.4 | 0.4 | 0.6 | Binding of Control Serum Blood-Bank to Looped peptides [3]: 0.6; Binding of Control serum Blood-bank to linear peptides [3]: 0.7; Binding of Control serum LUMC to linear peptides [3]: 0.7; Binding of Control serum LUMC to looped peptides [3]: 0.6; Binding of serum SARS-yellow to linear peptides of protein N of SARS-CoV Urbani [4]: 0.5; Binding of serum SARS-yellow to looped/cyclic peptides of protein N of SARS-CoV Urbani [4]: 0.4
3 | LSPRWYFYYLGTGPE | 0.2 | 1.1 | 0.1 | 0.2 | 0.3 | 0.3 | 0.3 | 0.3 | 0.2 | 0.5 | 0.2 | 0.2 | 1.0 | 0.8 | 0.9 | 0.8 | 0.5 | 0.3 | 0.9 | 0.6 | Binding of Control Serum Blood-Bank to Looped peptides [3]: 0.5; Binding of Control serum Blood-bank to linear peptides [3]: 0.7; Binding of Control serum LUMC to linear peptides [3]: 0.8; Binding of Control serum LUMC to looped peptides [3]: 0.6; Binding of serum SARS-yellow to linear peptides of protein N of SARS-CoV Urbani [4]: 0.6; Binding of serum SARS-yellow to looped/cyclic peptides of protein N of SARS-CoV Urbani [4]: 0.5
4 | MDDFSRQLQNSMSGA | 0.2 | 0.4 | 0.2 | 0.2 | 0.2 | 0.4 | 0.1 | 0.1 | 0.3 | 0.4 | 0.2 | 0.1 | 0.8 | 0.4 | 0.7 | 0.4 | 0.8 | 0.3 | 0.6 | 0.3 | Control Serum Blood-Bank Looped peptides [3]: 0.5; Control serum Blood-bank linear peptides [3]: 1.0; Control serum LUMC linear peptides [3]: 0.7; Control serum LUMC looped peptides [3]: 0.5; Binding of serum SARS-yellow to linear peptides of protein N of SARS-CoV Urbani [4]: 0.7; Binding of serum SARS-yellow to looped/cyclic peptides of protein N of SARS-CoV Urbani [4]: 0.2
